Measured values: ChEMBL document CHEMBL5463729, “Data for DCP probe BAY 1753011” (2023)

How the values were obtained:
Vasopressin V2 receptor = Vasopressin V2 receptor (Homo sapiens, UniProt P30518); assay: Inhibition of Vasopressin V2 at 10 µM in the Eurofins-Panlabs radioligand binding assay (Eurofins_assay_287610); set-up: ligand concentration 4 nM; conditions: Compound concentration 10.0 uM
[1] = molecular target: Progesterone receptor (Homo sapiens) (UniProt P06401); conditions: Compound concentration 10.0 uM
[2] = molecular target: Inhibitor of nuclear factor kappa-B kinase subunit alpha (Homo sapiens) (UniProt O15111); assay: Inhibition of IKKalpha(h) at 10.0 µM in the Eurofins Kinase panel; conditions: Compound concentration 10.0 uM
[3] = molecular target: Motilin receptor (Homo sapiens) (UniProt O43193); conditions: Compound concentration 10.0 uM
[4] = molecular target: Wee1-like protein kinase (Homo sapiens) (UniProt P30291); assay: Inhibition of WEE1(h) at 10.0 µM in the Eurofins Kinase panel; conditions: Compound concentration 10.0 uM
[5] = molecular target: Cyclin-dependent kinase 5/CDK5 activator 1 (Homo sapiens) (UniProt Q00535+Q15078); assay: Inhibition of CDK5/p25(h) at 10.0 µM in the Eurofins Kinase panel; format: protein-complex assay; conditions: Compound concentration 10.0 uM
Rattus norvegicus [6] = species: Rattus norvegicus; conditions: Compound concentration 10.0 uM
[7] = molecular target: Platelet-derived growth factor receptor alpha (Homo sapiens) (UniProt P16234); assay: Inhibition of PDGFRalpha(h) at 10.0 µM in the Eurofins Kinase panel; conditions: Compound concentration 10.0 uM
[8] = molecular target: Equilibrative nucleoside transporter 1/2/3/4 (Homo sapiens) (UniProt Q99808+Q7RTT9+Q14542+Q9BZD2); conditions: Compound concentration 10.0 uM
[9] = molecular target: Serine/threonine-protein kinase tousled-like 1 (Homo sapiens) (UniProt Q9UKI8); assay: Inhibition of TLK1(h) at 10.0 µM in the Eurofins Kinase panel; conditions: Compound concentration 10.0 uM
[10] = molecular target: Protein phosphatase 3 catalytic subunit alpha (Homo sapiens) (UniProt Q08209); assay: Inhibition of Protein Serine/threonine Phosphatase, PPP3CA (Calcineurin, PP2B) at […] µM in the Eurofins-Panlabs enzyme assay (Eurofins_assay_188020); set-up: substrate with concentration; conditions: Compound concentration 11.0 uM
[11] = molecular target: Polyunsaturated fatty acid lipoxygenase ALOX15 (Homo sapiens) (UniProt P16050); assay: Inhibition of Lipoxygenase 15-LO at 10 µM in the Eurofins-Panlabs enzyme assay (Eurofins_assay_138000); conditions: Oryctolagus cuniculus; Compound concentration 10.0 uM
[12] = molecular target: Angiopoietin-1 receptor (Homo sapiens) (UniProt Q02763); assay: Inhibition of Tie2(h) at 10.0 µM in the Eurofins Kinase panel; conditions: Compound concentration 10.0 uM
[13] = molecular target: Beta-1 adrenergic receptor (Homo sapiens) (UniProt P08588); conditions: Compound concentration 10.0 uM
[14] = molecular target: Receptor tyrosine-protein kinase erbB-2 (Homo sapiens) (UniProt P04626); assay: Inhibition of Protein Tyrosine Kinase, ERBB2 (HER2) at 10 µM in the Eurofins-Panlabs enzyme assay (Eurofins_assay_174020); set-up: substrate with concentration; conditions: Compound concentration 10.0 uM
[15] = molecular target: T1, Alpha-1A adrenergic receptor (Homo sapiens) (UniProt P35348); conditions: Rattus norvegicus; Compound concentration 10.0 uM
T1 sequence (whole entry): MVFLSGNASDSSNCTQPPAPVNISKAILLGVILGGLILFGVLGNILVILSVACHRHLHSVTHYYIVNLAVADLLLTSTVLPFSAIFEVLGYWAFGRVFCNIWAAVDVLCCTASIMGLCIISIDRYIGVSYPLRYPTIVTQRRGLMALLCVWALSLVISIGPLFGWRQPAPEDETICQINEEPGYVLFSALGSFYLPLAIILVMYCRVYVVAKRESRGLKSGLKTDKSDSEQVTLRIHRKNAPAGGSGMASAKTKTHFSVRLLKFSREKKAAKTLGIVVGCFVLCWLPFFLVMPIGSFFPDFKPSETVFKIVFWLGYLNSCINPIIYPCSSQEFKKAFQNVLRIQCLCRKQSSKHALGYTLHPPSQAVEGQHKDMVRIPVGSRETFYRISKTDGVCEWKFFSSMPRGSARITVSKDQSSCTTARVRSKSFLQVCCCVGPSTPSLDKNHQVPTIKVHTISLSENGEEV

[16] = molecular target: T2, Muscarinic acetylcholine receptor M1 (Homo sapiens) (UniProt P11229); conditions: Compound concentration 10.0 uM
T2 sequence (whole entry): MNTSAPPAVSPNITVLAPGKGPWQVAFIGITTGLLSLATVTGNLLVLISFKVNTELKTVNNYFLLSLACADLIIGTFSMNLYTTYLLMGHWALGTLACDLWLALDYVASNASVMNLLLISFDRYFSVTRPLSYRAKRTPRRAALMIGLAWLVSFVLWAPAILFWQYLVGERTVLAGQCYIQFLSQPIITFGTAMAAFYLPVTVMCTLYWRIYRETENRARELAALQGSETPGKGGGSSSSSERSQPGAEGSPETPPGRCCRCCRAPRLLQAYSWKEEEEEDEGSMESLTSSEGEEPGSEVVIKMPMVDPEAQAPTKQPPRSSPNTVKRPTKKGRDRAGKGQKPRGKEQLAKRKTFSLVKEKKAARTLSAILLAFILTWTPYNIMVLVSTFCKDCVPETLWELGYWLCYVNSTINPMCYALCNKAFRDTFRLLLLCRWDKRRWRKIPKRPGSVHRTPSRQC

[17] = molecular target: Melanocortin receptor 4 (Homo sapiens) (UniProt P32245); assay: Inhibition of Melanocortin MC4 at 10 µM in the Eurofins-Panlabs radioligand binding assay (Eurofins_assay_251350); set-up: ligand concentration 0.02 nM; conditions: Compound concentration 10.0 uM
Rattus norvegicus [18] = species: Rattus norvegicus; assay: Inhibition of Rolipram at 10 µM in the Eurofins-Panlabs radioligand binding assay (Eurofins_assay_268811); format: protein assay; set-up: ligand concentration 1.8 nM; conditions: Compound concentration 10.0 uM
[19] = molecular target: C-C chemokine receptor type 4 (Homo sapiens) (UniProt P51679); assay: Inhibition of Chemokine CCR4 at 10 µM in the Eurofins-Panlabs radioligand binding assay (Eurofins_assay_217660); conditions: Compound concentration 10.0 uM
Homo sapiens = species: Homo sapiens; assay: Inhibition of Tumor Necrosis Factor (TNF), Non-Selective at 10 µM in the Eurofins-Panlabs radioligand binding assay (Eurofins_assay_286510); conditions: Compound concentration 10.0 uM
[20] = molecular target: Receptor-type tyrosine-protein phosphatase C (Homo sapiens) (UniProt P08575); assay: Inhibition of Protein Tyrosine Phosphatase, PTPRC (CD45) at 10 µM in the Eurofins-Panlabs enzyme assay (Eurofins_assay_190010); conditions: Compound concentration 10.0 uM
[21] = molecular target: Mitogen-activated protein kinase kinase kinase 20 (Homo sapiens) (UniProt Q9NYL2); assay: Inhibition of ZAK(h) at 10.0 µM in the Eurofins Kinase panel; conditions: Compound concentration 10.0 uM
[22] = molecular target: cAMP-dependent protein kinase catalytic subunit beta (Homo sapiens) (UniProt P22694); assay: Inhibition of PKACbeta(h) at 10.0 µM in the Eurofins Kinase panel; conditions: Compound concentration 10.0 uM
[23] = molecular target: Interstitial collagenase (Homo sapiens) (UniProt P03956); assay: Inhibition of Peptidase, Matrix Metalloproteinase-1 (MMP-1) at 10 µM in the Eurofins-Panlabs enzyme assay (Eurofins_assay_114110); conditions: Compound concentration 10.0 uM
[24] = molecular target: C-C chemokine receptor type 5 (Homo sapiens) (UniProt P51681); assay: Inhibition of Chemokine CCR5 at 10 µM in the Eurofins-Panlabs radioligand binding assay (Eurofins_assay_217720); conditions: Compound concentration 10.0 uM

Sequence of Beta-1 adrenergic receptor (Homo sapiens) (P08588 whole entry, looked up): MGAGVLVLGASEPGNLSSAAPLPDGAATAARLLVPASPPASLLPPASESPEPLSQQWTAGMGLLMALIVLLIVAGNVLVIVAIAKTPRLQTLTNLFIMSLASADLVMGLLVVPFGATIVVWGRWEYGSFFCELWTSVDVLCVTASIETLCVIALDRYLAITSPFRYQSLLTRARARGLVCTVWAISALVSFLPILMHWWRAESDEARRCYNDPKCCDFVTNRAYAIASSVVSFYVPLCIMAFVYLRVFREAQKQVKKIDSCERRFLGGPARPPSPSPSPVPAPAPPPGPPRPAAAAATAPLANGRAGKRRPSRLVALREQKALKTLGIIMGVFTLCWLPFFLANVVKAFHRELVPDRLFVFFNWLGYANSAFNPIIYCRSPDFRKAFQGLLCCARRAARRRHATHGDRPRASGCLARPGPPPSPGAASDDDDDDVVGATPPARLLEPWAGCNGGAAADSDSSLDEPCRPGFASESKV
Sequence of Receptor-type tyrosine-protein phosphatase C (Homo sapiens) (P08575 whole entry): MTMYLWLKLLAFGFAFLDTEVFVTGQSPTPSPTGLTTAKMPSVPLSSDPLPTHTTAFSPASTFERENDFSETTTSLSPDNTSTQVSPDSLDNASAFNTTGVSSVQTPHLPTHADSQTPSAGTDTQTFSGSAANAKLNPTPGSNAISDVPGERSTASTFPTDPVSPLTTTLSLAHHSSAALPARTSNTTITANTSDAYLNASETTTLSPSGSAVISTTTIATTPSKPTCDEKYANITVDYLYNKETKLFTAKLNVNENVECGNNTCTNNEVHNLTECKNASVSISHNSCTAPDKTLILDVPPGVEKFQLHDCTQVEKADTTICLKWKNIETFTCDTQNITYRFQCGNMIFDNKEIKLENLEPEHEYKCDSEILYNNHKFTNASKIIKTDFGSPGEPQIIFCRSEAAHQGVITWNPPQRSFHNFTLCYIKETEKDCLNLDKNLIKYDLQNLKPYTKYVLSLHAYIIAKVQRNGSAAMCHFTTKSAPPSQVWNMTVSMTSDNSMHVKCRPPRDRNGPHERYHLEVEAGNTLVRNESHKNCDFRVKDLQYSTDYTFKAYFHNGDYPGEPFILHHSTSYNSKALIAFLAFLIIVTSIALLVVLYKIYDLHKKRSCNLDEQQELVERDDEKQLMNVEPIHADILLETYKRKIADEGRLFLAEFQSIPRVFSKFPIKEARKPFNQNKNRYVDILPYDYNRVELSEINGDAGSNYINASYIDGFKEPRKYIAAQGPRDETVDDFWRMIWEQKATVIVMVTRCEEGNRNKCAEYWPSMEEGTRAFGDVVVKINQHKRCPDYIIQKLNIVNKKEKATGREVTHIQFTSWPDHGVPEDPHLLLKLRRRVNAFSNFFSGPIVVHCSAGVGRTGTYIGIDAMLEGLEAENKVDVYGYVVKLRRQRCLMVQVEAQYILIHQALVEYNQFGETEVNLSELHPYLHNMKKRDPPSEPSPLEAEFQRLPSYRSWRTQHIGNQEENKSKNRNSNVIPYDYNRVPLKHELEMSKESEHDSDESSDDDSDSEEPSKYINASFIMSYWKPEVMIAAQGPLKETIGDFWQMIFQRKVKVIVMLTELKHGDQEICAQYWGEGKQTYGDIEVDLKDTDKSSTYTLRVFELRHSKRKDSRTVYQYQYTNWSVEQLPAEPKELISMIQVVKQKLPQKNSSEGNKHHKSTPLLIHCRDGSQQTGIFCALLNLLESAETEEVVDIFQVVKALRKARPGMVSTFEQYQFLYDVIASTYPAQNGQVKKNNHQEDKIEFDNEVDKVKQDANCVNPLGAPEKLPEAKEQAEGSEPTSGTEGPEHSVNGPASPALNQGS
Sequence of Motilin receptor (Homo sapiens) (O43193 whole entry): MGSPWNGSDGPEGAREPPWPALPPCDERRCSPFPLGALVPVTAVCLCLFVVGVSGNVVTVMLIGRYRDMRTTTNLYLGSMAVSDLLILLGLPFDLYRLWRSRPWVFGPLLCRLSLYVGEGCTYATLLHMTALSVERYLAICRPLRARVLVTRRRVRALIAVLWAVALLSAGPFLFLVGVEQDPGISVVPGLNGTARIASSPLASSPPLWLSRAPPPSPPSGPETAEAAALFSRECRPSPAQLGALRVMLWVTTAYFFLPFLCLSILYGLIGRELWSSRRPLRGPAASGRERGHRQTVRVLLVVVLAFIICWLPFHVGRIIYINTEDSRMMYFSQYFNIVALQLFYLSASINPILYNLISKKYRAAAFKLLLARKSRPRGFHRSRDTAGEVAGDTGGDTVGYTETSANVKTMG
Sequence of Inhibitor of nuclear factor kappa-B kinase subunit alpha (Homo sapiens) (O15111 whole entry): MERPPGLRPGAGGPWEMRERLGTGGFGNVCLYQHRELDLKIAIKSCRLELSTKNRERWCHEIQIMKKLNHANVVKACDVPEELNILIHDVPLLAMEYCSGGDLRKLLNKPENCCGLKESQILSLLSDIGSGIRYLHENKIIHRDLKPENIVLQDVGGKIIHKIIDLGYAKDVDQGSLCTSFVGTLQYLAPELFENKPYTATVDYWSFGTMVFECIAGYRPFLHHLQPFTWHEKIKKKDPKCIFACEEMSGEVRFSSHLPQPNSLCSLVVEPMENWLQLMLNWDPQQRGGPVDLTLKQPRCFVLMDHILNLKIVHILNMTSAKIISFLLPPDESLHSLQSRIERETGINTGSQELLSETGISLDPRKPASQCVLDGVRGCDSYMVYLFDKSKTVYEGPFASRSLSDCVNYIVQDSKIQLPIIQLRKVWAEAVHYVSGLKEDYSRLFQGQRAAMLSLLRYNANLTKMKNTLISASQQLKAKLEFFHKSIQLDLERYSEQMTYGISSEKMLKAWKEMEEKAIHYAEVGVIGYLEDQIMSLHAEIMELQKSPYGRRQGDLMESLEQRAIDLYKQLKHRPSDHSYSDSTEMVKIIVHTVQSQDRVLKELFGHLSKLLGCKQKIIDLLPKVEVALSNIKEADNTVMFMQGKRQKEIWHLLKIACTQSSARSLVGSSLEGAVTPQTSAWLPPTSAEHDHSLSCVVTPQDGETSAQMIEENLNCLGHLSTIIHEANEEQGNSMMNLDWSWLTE
Sequence of Platelet-derived growth factor receptor alpha (Homo sapiens) (P16234 whole entry): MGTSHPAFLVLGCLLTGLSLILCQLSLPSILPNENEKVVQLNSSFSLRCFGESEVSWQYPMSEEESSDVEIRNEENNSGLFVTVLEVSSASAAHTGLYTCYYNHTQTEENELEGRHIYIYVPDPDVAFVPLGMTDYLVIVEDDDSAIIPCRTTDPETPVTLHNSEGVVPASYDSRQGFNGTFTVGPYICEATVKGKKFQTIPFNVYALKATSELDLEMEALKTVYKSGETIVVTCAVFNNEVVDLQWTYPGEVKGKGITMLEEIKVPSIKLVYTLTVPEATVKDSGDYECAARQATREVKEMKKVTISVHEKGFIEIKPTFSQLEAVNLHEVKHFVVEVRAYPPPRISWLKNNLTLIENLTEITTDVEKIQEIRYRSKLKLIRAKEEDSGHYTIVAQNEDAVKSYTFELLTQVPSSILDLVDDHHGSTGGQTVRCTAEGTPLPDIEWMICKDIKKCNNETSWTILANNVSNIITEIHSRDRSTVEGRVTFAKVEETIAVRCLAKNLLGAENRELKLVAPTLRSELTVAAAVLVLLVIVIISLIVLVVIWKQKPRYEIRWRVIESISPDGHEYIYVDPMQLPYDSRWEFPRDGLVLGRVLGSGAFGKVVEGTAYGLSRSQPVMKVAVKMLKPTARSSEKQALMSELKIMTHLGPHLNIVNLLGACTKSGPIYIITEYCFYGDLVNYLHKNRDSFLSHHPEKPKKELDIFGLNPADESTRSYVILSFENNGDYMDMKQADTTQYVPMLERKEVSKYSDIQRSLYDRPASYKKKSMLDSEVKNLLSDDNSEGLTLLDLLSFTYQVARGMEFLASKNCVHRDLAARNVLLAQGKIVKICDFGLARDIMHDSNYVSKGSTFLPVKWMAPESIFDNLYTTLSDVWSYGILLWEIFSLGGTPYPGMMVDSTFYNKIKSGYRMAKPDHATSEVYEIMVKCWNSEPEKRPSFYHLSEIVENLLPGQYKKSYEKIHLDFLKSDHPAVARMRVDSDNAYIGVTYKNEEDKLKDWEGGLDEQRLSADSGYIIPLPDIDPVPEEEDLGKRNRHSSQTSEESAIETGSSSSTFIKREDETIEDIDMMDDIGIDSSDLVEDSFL
Sequence of Vasopressin V2 receptor (P30518 whole entry): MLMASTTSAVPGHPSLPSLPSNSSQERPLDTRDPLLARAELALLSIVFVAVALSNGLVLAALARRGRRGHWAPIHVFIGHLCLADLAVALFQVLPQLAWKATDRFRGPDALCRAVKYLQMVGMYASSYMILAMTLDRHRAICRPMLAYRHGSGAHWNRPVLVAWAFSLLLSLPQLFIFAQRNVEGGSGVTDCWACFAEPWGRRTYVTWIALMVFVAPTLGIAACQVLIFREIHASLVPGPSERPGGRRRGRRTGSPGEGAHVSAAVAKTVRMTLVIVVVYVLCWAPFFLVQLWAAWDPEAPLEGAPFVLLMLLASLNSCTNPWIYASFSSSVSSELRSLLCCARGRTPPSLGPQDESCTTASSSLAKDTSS
Sequence of Interstitial collagenase (Homo sapiens) (P03956 whole entry): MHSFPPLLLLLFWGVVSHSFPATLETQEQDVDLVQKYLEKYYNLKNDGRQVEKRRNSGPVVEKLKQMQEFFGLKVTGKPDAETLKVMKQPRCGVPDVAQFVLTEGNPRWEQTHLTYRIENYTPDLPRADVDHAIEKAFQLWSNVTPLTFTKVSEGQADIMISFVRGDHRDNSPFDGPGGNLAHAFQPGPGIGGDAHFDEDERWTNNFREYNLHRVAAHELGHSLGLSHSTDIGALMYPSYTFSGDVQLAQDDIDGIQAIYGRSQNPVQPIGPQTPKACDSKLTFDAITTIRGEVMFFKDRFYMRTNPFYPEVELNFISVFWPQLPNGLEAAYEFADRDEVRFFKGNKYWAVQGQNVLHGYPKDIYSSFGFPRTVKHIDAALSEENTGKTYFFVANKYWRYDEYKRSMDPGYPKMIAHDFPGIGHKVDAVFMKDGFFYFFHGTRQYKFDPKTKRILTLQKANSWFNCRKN

Structure (SMILES): O=c1n(Cc2cncn2-c2cccc(Cl)c2)nc(-c2ccc(Cl)cc2)n1C[C@H](O)C(F)(F)F
- inhibition (Vasopressin V2 receptor): 29%
- inhibition [1]: 25%
- inhibition [2]: -2.69%
- inhibition [3]: 12%
- inhibition [4]: -5.39%
- inhibition [5]: 2.09%
- inhibition (Rattus norvegicus [6]): -0.38%
- inhibition [7]: -5.3%
- inhibition [8]: 10%

Structure (SMILES): C[C@H](O)c1nc(Cn2nc(-c3ccc(Cl)cc3)n(C[C@H](O)C(F)(F)F)c2=O)nn1-c1cccc(Cl)c1 [PECAVAPTAN]
- inhibition [9]: -3.06%
- inhibition [10]: 32%
- inhibition [11]: 4%
- inhibition [12]: -8.17%
- inhibition [13]: -7.44%
- inhibition [14]: 15%
- inhibition [15]: 23%
- inhibition [16]: 4.34%
- inhibition [17]: 4%
- inhibition (Rattus norvegicus [18]): -2%
- inhibition [19]: -2%
- inhibition (Homo sapiens): -1%
- inhibition [20]: 0%
- inhibition [21]: -4.87%
- inhibition [22]: -5.07%
- inhibition [23]: 3%
- inhibition [24]: -3%
